Data as given in ChEMBL document CHEMBL1201862, “PubChem BioAssay data set” (2004).
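Dose response: 5 concentrations. Exposure: 48 h. Format: 96-well plates. Endpoint: linear interpolation; highest concentration if not reached. At the GI50, growth is halved.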 Calls of active or inactive are those of the source. No stated cut-off is given here; in the data, active = GI50 up to about 1.1 µM and inactive = higher.

Columns and labels:
Assay in all cases: NCI anticancer screen, dose series, 48 h
M14 = system: M14
RXF 393 = system: RXF 393
NCI-H522 = system: NCI-H522
NCI-H23 = system: NCI-H23
HCC 2998 = system: HCC 2998
RXF 631 = system: RXF 631
HCT-116 = system: HCT-116
IGROV-1 = system: IGROV-1
HCT-15 = system: HCT-15
ACHN = system: ACHN
SK-MEL-2 = system: SK-MEL-2
UO-31 = system: UO-31
SN12C = system: SN12C
CAKI-1 = system: CAKI-1
RPMI-8226 = system: RPMI-8226

Compound	GI50 (M14)	GI50 (RXF 393)	GI50 (NCI-H522)	GI50 (NCI-H23)	GI50 (HCC 2998)	GI50 (RXF 631)	GI50 (HCT-116)	GI50 (IGROV-1)	GI50 (HCT-15) [µM]	GI50 (ACHN)	GI50 (SK-MEL-2)	GI50 (UO-31)	GI50 (SN12C)	GI50 (CAKI-1)	GI50 (RPMI-8226)
C/C=C(/CCCCNCCCC)[Si](C)(C)C	14.4 µM (inactive)	8.65 µM (inactive)	11.9 µM (inactive)	16.1 µM (inactive)	5.66 µM (inactive)	15 µM (inactive)	12.4 µM (inactive)	19.2 µM (inactive)	14.4	14 µM (inactive)	18.7 µM (inactive)	17.5 µM (inactive)	16.2 µM (inactive)		
N#CC(C(=O)CCCC(=O)Nc1ccc(Cl)cc1Cl)c1ccccc1 (stereo unspecified)	> 100 µM (inactive)	> 100 µM (inactive)		> 100 µM (inactive)	> 100 µM (inactive)	> 100 µM (inactive)	> 100 µM (inactive)	> 100 µM (inactive)	> 100	> 100 µM (inactive)	> 100 µM (inactive)	> 100 µM (inactive)	> 100 µM (inactive)	> 100 µM (inactive)	
COC(=O)/C(C#N)=C1\NN=NN1c1ccc(OC)cc1	> 100 µM (inactive)	> 100 µM (inactive)	> 100 µM (inactive)	> 100 µM (inactive)	> 100 µM (inactive)	> 100 µM (inactive)	> 100 µM (inactive)	> 100 µM (inactive)	> 100	> 100 µM (inactive)		> 100 µM (inactive)	> 100 µM (inactive)	> 100 µM (inactive)	> 100 µM (inactive)
O=C(O)c1ccc([C@@H]2C(=O)N(O)[C@@H]3C=CC[C@@H]32)cc1	> 100 µM (inactive)	> 100 µM (inactive)	> 100 µM (inactive)	> 100 µM (inactive)	> 100 µM (inactive)	> 100 µM (inactive)		> 100 µM (inactive)	> 100		> 100 µM (inactive)	> 100 µM (inactive)	> 100 µM (inactive)	> 100 µM (inactive)	> 100 µM (inactive)
Cn1cc(NC(=O)c2cc(NC(=O)Nc3cc(C(=O)Nc4cc(C(=O)NCCC(=N)N)n(C)c4)n(C)c3)cn2C)cc1C(=O)NCCC(=N)N	20.4 µM (inactive)	22.4 µM (inactive)		37.4 µM (inactive)	48.1 µM (inactive)	23.1 µM (inactive)	37.2 µM (inactive)	24.5 µM (inactive)	> 100	25.2 µM (inactive)		33.1 µM (inactive)	86.7 µM (inactive)	30.5 µM (inactive)	
CCOC(OC1=C(C#N)CCCC1)C(CC)[Se]c1ccccc1 (stereo unspecified)	26.3 µM (inactive)	15 µM (inactive)	14.7 µM (inactive)	14.3 µM (inactive)	35.2 µM (inactive)	11.3 µM (inactive)	14.5 µM (inactive)	20.7 µM (inactive)	16.2	30.1 µM (inactive)	29.4 µM (inactive)	37.8 µM (inactive)	16.3 µM (inactive)	53.1 µM (inactive)	16.2 µM (inactive)
CCOC(=O)C(=O)CC1=Nc2ccccc2SC(c2cccc(C)c2)C1 (stereo unspecified)	18.6 µM (inactive)		17.3 µM (inactive)	17.1 µM (inactive)	16.3 µM (inactive)	16 µM (inactive)	14.7 µM (inactive)	18.4 µM (inactive)	18.2	16.6 µM (inactive)	16.3 µM (inactive)	15.4 µM (inactive)	17.1 µM (inactive)	21.9 µM (inactive)	23.7 µM (inactive)
c1ccc2c(c1)CCC/C2=N\OCC1CO1 (stereo unspecified)	80.9 µM (inactive)	31.8 µM (inactive)		80 µM (inactive)	> 100 µM (inactive)	> 100 µM (inactive)	47.2 µM (inactive)	> 100 µM (inactive)	> 100	68.4 µM (inactive)	61.2 µM (inactive)	38.6 µM (inactive)	> 100 µM (inactive)	36.1 µM (inactive)	55.1 µM (inactive)
CC(C)(C)OC(=O)N[C@H]1CC(=O)c2ccccc2N(CC(=O)O)C1=O	> 100 µM (inactive)	> 100 µM (inactive)	> 100 µM (inactive)	> 100 µM (inactive)	> 100 µM (inactive)	> 100 µM (inactive)	26.5 µM (inactive)	> 100 µM (inactive)	> 100	> 100 µM (inactive)	> 100 µM (inactive)	> 100 µM (inactive)	> 100 µM (inactive)	> 100 µM (inactive)	
Cc1ccc(S(=O)(=O)c2c(N)c3nc4ccccc4n3c3nc4ccccc4nc23)cc1	> 100 µM (inactive)		> 100 µM (inactive)	> 100 µM (inactive)	> 100 µM (inactive)	> 100 µM (inactive)	> 100 µM (inactive)	> 100 µM (inactive)	> 100	> 100 µM (inactive)	> 100 µM (inactive)	71.4 µM (inactive)	> 100 µM (inactive)	> 100 µM (inactive)	> 100 µM (inactive)
